Source: PubChem BioAssay AID1963845 (Molecular Pharmacology Branch, DTP, NCI, 2024)

Test system: 429239-143-T-J1-PDC complex spheroid viability
Test: Anticancer human tumor 429239-143-T-J1-PDC patient-derived small cell lung carcinoma cell line growth inhibition [POLQ]
Conditions: for IC50: curve of first compound; for viability, T/C: stronger effect = lower value
Summary of the method: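 Patient-derived tumour cells were co-cultured with HUVEC and mesenchymal stem cells as multicellular spheroids at 37 °C. They were treated with POLQ inhibitors (novobiocin, ART-558, RP6685) alone or combined with other agents. Top concentrations were at or near clinical Cmax (otherwise 10 microM; SN-38 at 1 microM), decreasing in half-log steps.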
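Note: luminescence signal used as surrogate measure of viable cells; spheroids exposed to compounds for seven days before readout.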
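Throughout, for viability, T/C: 100% = DMSO vehicle control viability as luminescence relative to vehicle.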

CC(=O)O[C@H]1C(=O)[C@@]2(C)[C@H]([C@H](OC(=O)c3ccccc3)[C@]3(O)C[C@H](OC(=O)[C@H](O)[C@@H](NC(=O)c4ccccc4)c4ccccc4)C(C)=C1C3(C)C)[C@]1(OC(C)=O)CO[C@@H]1C[C@@H]2O + COC1C(OC(N)=O)C(O)C(Oc2ccc3c(O)c(NC(=O)c4ccc(O)c(CC=C(C)C)c4)c(=O)oc3c2C)OC1(C)C
IC50 (second compound 0.0316 µM): < 9.49 nM
IC50 (second compound 0.1 µM): < 9.49 nM
IC50 (second compound 0.316 µM): < 9.49 nM
IC50 (second compound 1 µM): < 9.49 nM
IC50 (second compound 3.16 µM): < 9.49 nM
IC50 (second compound 10 µM): < 9.49 nM
viability, T/C (second compound 0.0316 µM, first compound 0.00949 µM): 12.5%
viability, T/C (second compound 0.0316 µM, first compound 0.03 µM): 12.8%
viability, T/C (second compound 0.0316 µM, first compound 0.0949 µM): 10.9%
viability, T/C (second compound 0.0316 µM, first compound 0.3 µM): 13.6%
viability, T/C (second compound 0.0316 µM, first compound 0.949 µM): 11.8%
viability, T/C (second compound 0.0316 µM, first compound 3 µM): 13.3%
viability, T/C (second compound 0.1 µM, first compound 0.00949 µM): 14.8%
viability, T/C (second compound 0.1 µM, first compound 0.03 µM): 13.2%
viability, T/C (second compound 0.1 µM, first compound 0.0949 µM): 13.4%
viability, T/C (second compound 0.1 µM, first compound 0.3 µM): 11.5%
viability, T/C (second compound 0.1 µM, first compound 0.949 µM): 12.4%
viability, T/C (second compound 0.1 µM, first compound 3 µM): 14.3%
viability, T/C (second compound 0.316 µM, first compound 0.00949 µM): 13.8%
viability, T/C (second compound 0.316 µM, first compound 0.03 µM): 11.2%
viability, T/C (second compound 0.316 µM, first compound 0.0949 µM): 11.2%
viability, T/C (second compound 0.316 µM, first compound 0.3 µM): 11.3%
viability, T/C (second compound 0.316 µM, first compound 0.949 µM): 12.4%
viability, T/C (second compound 0.316 µM, first compound 3 µM): 12.2%
viability, T/C (second compound 1 µM, first compound 0.00949 µM): 12.5%
viability, T/C (second compound 1 µM, first compound 0.03 µM): 12.4%
viability, T/C (second compound 1 µM, first compound 0.0949 µM): 12.6%
viability, T/C (second compound 1 µM, first compound 0.3 µM): 11.6%
viability, T/C (second compound 1 µM, first compound 0.949 µM): 14.2%
viability, T/C (second compound 1 µM, first compound 3 µM): 13.9%
viability, T/C (second compound 3.16 µM, first compound 0.00949 µM): 15.9%
viability, T/C (second compound 3.16 µM, first compound 0.03 µM): 12.6%
viability, T/C (second compound 3.16 µM, first compound 0.0949 µM): 12%
viability, T/C (second compound 3.16 µM, first compound 0.3 µM): 11.3%
viability, T/C (second compound 3.16 µM, first compound 0.949 µM): 15.8%
viability, T/C (second compound 3.16 µM, first compound 3 µM): 13.8%
viability, T/C (second compound 10 µM, first compound 0.00949 µM): 14.8%
viability, T/C (second compound 10 µM, first compound 0.03 µM): 12.8%
viability, T/C (second compound 10 µM, first compound 0.0949 µM): 12.1%
viability, T/C (second compound 10 µM, first compound 0.3 µM): 12.8%
viability, T/C (second compound 10 µM, first compound 0.949 µM): 12.6%
viability, T/C (second compound 10 µM, first compound 3 µM): 13.3%

CC[C@@]1(O)C(=O)OCc2c1cc1n(c2=O)Cc2cc3c(CN(C)C)c(O)ccc3nc2-1 + COC1C(OC(N)=O)C(O)C(Oc2ccc3c(O)c(NC(=O)c4ccc(O)c(CC=C(C)C)c4)c(=O)oc3c2C)OC1(C)C
IC50 (second compound 0.0316 µM): 13.5 nM
IC50 (second compound 0.1 µM): 16 nM
IC50 (second compound 0.316 µM): 15 nM
IC50 (second compound 1 µM): 16.6 nM
IC50 (second compound 3.16 µM): 13.6 nM
IC50 (second compound 10 µM): 16.2 nM
viability, T/C (second compound 0.0316 µM, first compound 0.000316 µM): 102%
viability, T/C (second compound 0.0316 µM, first compound 0.001 µM): 101%
viability, T/C (second compound 0.0316 µM, first compound 0.00316 µM): 86.5%
viability, T/C (second compound 0.0316 µM, first compound 0.01 µM): 63%
viability, T/C (second compound 0.0316 µM, first compound 0.0316 µM): 18.6%
viability, T/C (second compound 0.0316 µM, first compound 0.1 µM): 19.8%
viability, T/C (second compound 0.1 µM, first compound 0.000316 µM): 110%
viability, T/C (second compound 0.1 µM, first compound 0.001 µM): 108%
viability, T/C (second compound 0.1 µM, first compound 0.00316 µM): 88.7%
viability, T/C (second compound 0.1 µM, first compound 0.01 µM): 72.9%
viability, T/C (second compound 0.1 µM, first compound 0.0316 µM): 16.8%
viability, T/C (second compound 0.1 µM, first compound 0.1 µM): 19%
viability, T/C (second compound 0.316 µM, first compound 0.000316 µM): 98.4%
viability, T/C (second compound 0.316 µM, first compound 0.001 µM): 97.4%
viability, T/C (second compound 0.316 µM, first compound 0.00316 µM): 101%
viability, T/C (second compound 0.316 µM, first compound 0.01 µM): 66.3%
viability, T/C (second compound 0.316 µM, first compound 0.0316 µM): 20.4%
viability, T/C (second compound 0.316 µM, first compound 0.1 µM): 19.7%
viability, T/C (second compound 1 µM, first compound 0.000316 µM): 93.6%
viability, T/C (second compound 1 µM, first compound 0.001 µM): 98%
viability, T/C (second compound 1 µM, first compound 0.00316 µM): 83.7%
viability, T/C (second compound 1 µM, first compound 0.01 µM): 73.8%
viability, T/C (second compound 1 µM, first compound 0.0316 µM): 17.7%
viability, T/C (second compound 1 µM, first compound 0.1 µM): 21.4%
viability, T/C (second compound 3.16 µM, first compound 0.000316 µM): 108%
viability, T/C (second compound 3.16 µM, first compound 0.001 µM): 93.4%
viability, T/C (second compound 3.16 µM, first compound 0.00316 µM): 99.7%
viability, T/C (second compound 3.16 µM, first compound 0.01 µM): 61.4%
viability, T/C (second compound 3.16 µM, first compound 0.0316 µM): 18.5%
viability, T/C (second compound 3.16 µM, first compound 0.1 µM): 18.4%
viability, T/C (second compound 10 µM, first compound 0.000316 µM): 87.8%
viability, T/C (second compound 10 µM, first compound 0.001 µM): 103%
viability, T/C (second compound 10 µM, first compound 0.00316 µM): 91.1%
viability, T/C (second compound 10 µM, first compound 0.01 µM): 71.1%
viability, T/C (second compound 10 µM, first compound 0.0316 µM): 20.8%
viability, T/C (second compound 10 µM, first compound 0.1 µM): 17.4%
